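Five concentrations, 48 hours, 96-well plates. GI50 marks 50% less growth. TGI: concentration producing complete growth inhibition.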
How the values were obtained:
Test in all cases: NCI anticancer screen, dose series, 48 h
HCT-116 colon = system: HCT-116 colon
NCI-H460 lung = system: NCI-H460 lung
NCI-H226 lung = system: NCI-H226 lung
NCI-H23 lung = system: NCI-H23 lung
EKVX NSCLC = system: EKVX NSCLC
A549 NSCLC = system: A549 NSCLC
HT29 colon = system: HT29 colon
K-562 leukemia = system: K-562 leukemia
ACHN renal = system: ACHN renal
NCI-H522 lung = system: NCI-H522 lung

Row | SMILES | GI50 (HCT-116 colon) | TGI (HCT-116 colon) | GI50 (NCI-H460 lung) | TGI (NCI-H460 lung) | GI50 (NCI-H226 lung) | TGI (NCI-H226 lung) | GI50 (NCI-H23 lung) | TGI (NCI-H23 lung) | GI50 (EKVX NSCLC) | TGI (EKVX NSCLC) | GI50 (A549 NSCLC) | TGI (A549 NSCLC) | GI50 (HT29 colon) | TGI (HT29 colon) | GI50 (K-562 leukemia) | TGI (K-562 leukemia) | GI50 (ACHN renal) | TGI (ACHN renal) | GI50 (NCI-H522 lung) | TGI (NCI-H522 lung)
1 | NC(=O)Nc1ccc2ncnc(Nc3ccc(Cl)cc3)c2c1 | 24.9 µM | 98.2 µM | 24.5 µM | > 100 µM | 22.9 µM | > 100 µM | 21.6 µM | 69 µM | 0.369 µM | 11.9 µM | 18.4 µM | > 100 µM | 25.3 µM | > 100 µM | 28.9 µM | > 100 µM | 1.49 µM | 45.3 µM | 6.08 µM | 36 µM
2 | COc1ccc(-c2cc(-c3ccccc3)c(C#N)c(=O)[nH]2)cc1 | – | > 100 µM | – | > 100 µM | – | > 100 µM | – | > 100 µM | – | > 100 µM | – | > 100 µM | – | > 100 µM | – | > 100 µM | – | > 100 µM | – | > 100 µM
3 | CC12C=CC(C)(O1)C1C2c2ccccc2S1(=O)=O (stereo not given) | 47.9 µM | > 100 µM | > 100 µM | > 100 µM | 42 µM | > 100 µM | 46.6 µM | > 100 µM | 92.9 µM | > 100 µM | > 100 µM | > 100 µM | > 100 µM | > 100 µM | 69.7 µM | > 100 µM | 69.2 µM | > 100 µM | 33.6 µM | > 100 µM

— PubChem BioAssay (NCI)
